{"source": "PubChem BioAssay AID180", "about": "(DTP/NCI, 2004)", "test_system": "BDF1 mice, Adenocarcinoma 755 s.c., tumor weight T/C", "assay": "NCI In Vivo Anticancer Drug Screen. Data for tumor model Adenocarcinoma 755 (subcutaneous) in B6D2F1 (BDF1) mice", "conditions": "endpoint: mean tumor weight, higher = larger tumour", "procedure,_shortened": "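Readout: T/C, i.e. treated-group measurement over vehicle-control measurement. Endpoint is survival or tumor size in tumor-bearing mice given compound.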", "key": {"[1]": {"conditions": "dose: 45.0 mg/kg/injection, schedule: Q01DX011 (sc), vehicle: steriod suspending solution"}}, "note": "Values joined by “and” are separate entries in the source; they are usually repeats but may differ in a detail not shown here. Equal entries are not always repeated.", "data": [{"smiles": "CCC1/C=C/C=C/CC(C)C(O)C(C)(O)C(=O)C(C)C(O)C(C)C(=O)C(C)C(O)C(C)/C=C/C(=O)OC2C(C)C(CC1)OC1(OC(CC(C)O)C(C)CC1=O)C2C", "note": "(configuration not stated) (tested in a mixture with another compound)", "values": [{"measurement": "T/C", "setting": "dose: 1.0 mg/kg/injection, schedule: Q01DX011 (ip), vehicle: saline", "value": "68 % of control"}, {"measurement": "T/C", "setting": "dose: 2.0 mg/kg/injection, schedule: Q01DX011 (ip), vehicle: saline", "value": "87 % of control"}, {"measurement": "T/C", "setting": "dose: 4.0 mg/kg/injection, schedule: Q01DX011 (ip), vehicle: saline", "value": "61 % of control"}]}, {"smiles": "OCC1OC(n2cnc3c(Br)ncnc32)C(O)C1O", "note": "(configuration not stated)", "values": [{"measurement": "T/C", "setting": "dose: 30.0 mg/kg/injection, schedule: Q01DX011 (ip), vehicle: carboxymethylcellulose (CMC)", "value": "74 % of control"}, {"measurement": "T/C", "setting": "dose: 120.0 mg/kg/injection, schedule: Q01DX011 (ip), vehicle: carboxymethylcellulose (CMC)", "value": "63 % of control"}, {"measurement": "T/C", "setting": "dose: 240.0 mg/kg/injection, schedule: Q01DX011 (ip), vehicle: carboxymethylcellulose (CMC)", "value": "49 % of control"}]}, {"smiles": "CC(=O)OCC(=O)[C@@]1(O)CC[C@H]2[C@@H]3CCC4=CC(=O)CC[C@]4(C)[C@H]3[C@@H](O)C[C@@]21C", "values": [{"measurement": "T/C", "setting": "dose: 1.13 mg/kg/injection, schedule: Q01DX011 (sc), vehicle: steriod suspending solution", "value": "225 % of control"}, {"measurement": "T/C", "setting": "dose: 2.25 mg/kg/injection, schedule: Q01DX011 (sc), vehicle: steriod suspending solution", "value": "109 % of control"}, {"measurement": "T/C", "setting": "dose: 2.5 mg/kg/injection, schedule: Q01DX011 (ip), vehicle: steriod suspending solution", "value": "60 % of control"}, {"measurement": "T/C", "setting": "dose: 3.75 mg/kg/injection, schedule: Q01DX011 (sc), vehicle: steriod suspending solution", "value": "117 % of control"}, {"measurement": "T/C", "setting": "dose: 4.5 mg/kg/injection, schedule: Q01DX011 (sc), vehicle: steriod suspending solution", "value": "153 % of control"}, {"measurement": "T/C", "setting": "dose: 5.0 mg/kg/injection, schedule: Q01DX011 (ip), vehicle: steriod suspending solution", "value": "73 % of control"}, {"measurement": "T/C", "setting": "dose: 5.0 mg/kg/injection, schedule: Q01DX011 (sc), vehicle: steriod suspending solution", "value": "56 % of control"}, {"measurement": "T/C", "setting": "dose: 7.5 mg/kg/injection, schedule: Q01DX011 (sc), vehicle: steriod suspending solution", "value": "85 % of control"}, {"measurement": "T/C", "setting": "dose: 9.0 mg/kg/injection, schedule: Q01DX011 (sc), vehicle: steriod suspending solution", "value": "54 % of control"}, {"measurement": "T/C", "setting": "dose: 10.0 mg/kg/injection, schedule: Q01DX006 (iv), vehicle: steriod suspending solution", "value": "88 % of control"}, {"measurement": "T/C", "setting": "dose: 10.0 mg/kg/injection, schedule: Q01DX011 (ip), vehicle: steriod suspending solution", "value": "50 % of control"}, {"measurement": "T/C", "setting": "dose: 10.0 mg/kg/injection, schedule: Q01DX011 (sc), vehicle: steriod suspending solution", "value": "33 % of control"}, {"measurement": "T/C", "setting": "dose: 20.0 mg/kg/injection, schedule: Q01DX006 (iv), vehicle: steriod suspending solution", "value": "32 % of control"}, {"measurement": "T/C", "setting": "dose: 20.0 mg/kg/injection, schedule: Q01DX011 (ip), vehicle: steriod suspending solution", "value": "17 % of control"}, {"measurement": "T/C", "setting": "dose: 20.0 mg/kg/injection, schedule: Q01DX011 (sc), vehicle: steriod suspending solution", "value": "63 % of control"}, {"measurement": "T/C", "setting": "dose: 30.0 mg/kg/injection, schedule: Q01DX011 (sc), vehicle: steriod suspending solution", "value": "19 % of control and 28 % of control"}, {"measurement": "T/C", "setting": "dose: 31.25 mg/kg/injection, schedule: Q01DX011 (sc), vehicle: steriod suspending solution", "value": "19 % of control"}, {"measurement": "T/C", "setting": "dose: 40.0 mg/kg/injection, schedule: Q01DX006 (iv), vehicle: steriod suspending solution", "value": "66 % of control"}, {"measurement": "T/C", "setting": "dose: 40.0 mg/kg/injection, schedule: Q01DX011 (sc), vehicle: steriod suspending solution", "value": "15 % of control"}, {"measurement": "T/C", "setting": "[1]", "value": "27 % of control"}, {"measurement": "T/C", "setting": "dose: 50.0 mg/kg/injection, schedule: Q01DX011 (sc), vehicle: steriod suspending solution", "value": "16 % of control"}, {"measurement": "T/C", "setting": "dose: 62.5 mg/kg/injection, schedule: Q01DX011 (sc), vehicle: steriod suspending solution", "value": "21 % of control"}, {"measurement": "T/C", "setting": "dose: 70.0 mg/kg/injection, schedule: Q01DX001 (sc), vehicle: steriod suspending solution", "value": "34 % of control and 41 % of control"}, {"measurement": "T/C", "setting": "dose: 70.0 mg/kg/injection, schedule: Q07DX002 (sc), vehicle: steriod suspending solution", "value": "17 % of control"}, {"measurement": "T/C", "setting": "dose: 80.0 mg/kg/injection, schedule: Q01DX006 (iv), vehicle: steriod suspending solution", "value": "19 % of control"}, {"measurement": "T/C", "setting": "dose: 125.0 mg/kg/injection, schedule: Q01DX011 (sc), vehicle: steriod suspending solution", "value": "2 % of control"}, {"measurement": "T/C", "setting": "dose: 140.0 mg/kg/injection, schedule: Q01DX001 (sc), vehicle: steriod suspending solution", "value": "23 % of control and 43 % of control"}, {"measurement": "T/C", "setting": "dose: 160.0 mg/kg/injection, schedule: Q01DX006 (iv), vehicle: steriod suspending solution", "value": "28 % of control"}, {"measurement": "T/C", "setting": "dose: 280.0 mg/kg/injection, schedule: Q01DX001 (sc), vehicle: steriod suspending solution", "value": "32 % of control and 46 % of control"}, {"measurement": "T/C", "setting": "dose: 280.0 mg/kg/injection, schedule: Q07DX002 (sc), vehicle: steriod suspending solution", "value": "14 % of control"}]}, {"smiles": "O=C=NC(c1ccccc1)(c1ccccc1)c1ccccc1", "values": [{"measurement": "T/C", "setting": "dose: 7.0 mg/kg/injection, schedule: Q01DX011 (ip), vehicle: carboxymethylcellulose (CMC)", "value": "102 % of control"}, {"measurement": "T/C", "setting": "dose: 14.0 mg/kg/injection, schedule: Q01DX011 (ip), vehicle: carboxymethylcellulose (CMC)", "value": "103 % of control"}, {"measurement": "T/C", "setting": "dose: 28.0 mg/kg/injection, schedule: Q01DX011 (ip), vehicle: carboxymethylcellulose (CMC)", "value": "86 % of control and 87 % of control"}, {"measurement": "T/C", "setting": "dose: 112.0 mg/kg/injection, schedule: Q01DX011 (ip), vehicle: carboxymethylcellulose (CMC)", "value": "71 % of control"}]}, {"smiles": "CN1CCN(CCCN2c3ccccc3Sc3ccc(C(F)(F)F)cc32)CC1", "values": [{"measurement": "T/C", "setting": "dose: 22.0 mg/kg/injection, schedule: Q01DX011 (ip), vehicle: saline", "value": "32 % of control"}]}, {"smiles": "CN1C=NNc2ncnc(Cl)c21", "values": [{"measurement": "T/C", "setting": "dose: 125.0 mg/kg/injection, schedule: Q01DX011 (ip), vehicle: carboxymethylcellulose (CMC)", "value": "166 % of control"}, {"measurement": "T/C", "setting": "dose: 250.0 mg/kg/injection, schedule: Q01DX011 (ip), vehicle: carboxymethylcellulose (CMC)", "value": "161 % of control"}]}, {"smiles": "CCCSc1nc(N)nc2c1ncn2CC(C)C", "values": [{"measurement": "T/C", "setting": "dose: 6.25 mg/kg/injection, schedule: Q01DX011 (ip), vehicle: methylcellulose (MC)", "value": "31 % of control"}, {"measurement": "T/C", "setting": "dose: 12.5 mg/kg/injection, schedule: Q01DX011 (ip), vehicle: methylcellulose (MC)", "value": "25 % of control"}, {"measurement": "T/C", "setting": "dose: 25.0 mg/kg/injection, schedule: Q01DX011 (ip), vehicle: methylcellulose (MC)", "value": "4 % of control"}, {"measurement": "T/C", "setting": "dose: 50.0 mg/kg/injection, schedule: Q01DX011 (ip), vehicle: methylcellulose (MC)", "value": "1 % of control"}]}, {"smiles": "CCCn1cnc2c(SCc3ccccc3)nc(N)nc21", "values": [{"measurement": "T/C", "setting": "dose: 7.81 mg/kg/injection, schedule: Q01DX011 (ip), vehicle: methylcellulose (MC)", "value": "43 % of control"}, {"measurement": "T/C", "setting": "dose: 15.62 mg/kg/injection, schedule: Q01DX011 (ip), vehicle: methylcellulose (MC)", "value": "9 % of control"}, {"measurement": "T/C", "setting": "dose: 31.25 mg/kg/injection, schedule: Q01DX011 (ip), vehicle: methylcellulose (MC)", "value": "37 % of control"}, {"measurement": "T/C", "setting": "dose: 62.5 mg/kg/injection, schedule: Q01DX011 (ip), vehicle: methylcellulose (MC)", "value": "1 % of control"}]}, {"smiles": "O=C1[O][Sb]23[O]C(=O)C([O]2)C(O)C(O)C2[O][Sb]4([O]C(=O)C([O]4)C(O)C(O)C1[O]3)[O]C2=O", "note": "(configuration not stated)", "values": [{"measurement": "T/C", "setting": "dose: 80.0 mg/kg/injection, schedule: Q01DX011 (ip), vehicle: methylcellulose (MC)", "value": "50 % of control and 55 % of control"}]}, {"smiles": "CC(=O)OCC(=O)[C@@]1(O)CC[C@H]2[C@@H]3C=C(C)C4=CC(=O)CC[C@]4(C)[C@H]3[C@@H](O)C[C@@]21C", "values": [{"measurement": "T/C", "setting": "dose: 11.2 mg/kg/injection, schedule: Q01DX011 (sc), vehicle: steriod suspending solution", "value": "36 % of control and 57 % of control"}, {"measurement": "T/C", "setting": "dose: 22.5 mg/kg/injection, schedule: Q01DX011 (sc), vehicle: steriod suspending solution", "value": "42 % of control and 50 % of control"}, {"measurement": "T/C", "setting": "[1]", "value": "23 % of control and 24 % of control"}, {"measurement": "T/C", "setting": "dose: 90.0 mg/kg/injection, schedule: Q01DX011 (sc), vehicle: steriod suspending solution", "value": "15 % of control and 16 % of control"}, {"measurement": "T/C", "setting": "dose: 180.0 mg/kg/injection, schedule: Q01DX011 (sc), vehicle: steriod suspending solution", "value": "10 % of control"}]}, {"smiles": "CCCc1c(Cl)nc(Cl)nc1Cl", "values": [{"measurement": "T/C", "setting": "dose: 17.5 mg/kg/injection, schedule: Q01DX011 (ip), vehicle: carboxymethylcellulose (CMC)", "value": "54 % of control"}, {"measurement": "T/C", "setting": "dose: 25.0 mg/kg/injection, schedule: Q01DX011 (ip), vehicle: carboxymethylcellulose (CMC)", "value": "85 % of control"}, {"measurement": "T/C", "setting": "dose: 35.0 mg/kg/injection, schedule: Q01DX011 (ip), vehicle: carboxymethylcellulose (CMC)", "value": "104 % of control"}, {"measurement": "T/C", "setting": "dose: 50.0 mg/kg/injection, schedule: Q01DX011 (ip), vehicle: carboxymethylcellulose (CMC)", "value": "43 % of control"}, {"measurement": "T/C", "setting": "dose: 100.0 mg/kg/injection, schedule: Q01DX011 (ip), vehicle: carboxymethylcellulose (CMC)", "value": "44 % of control"}]}]}
